# System: Pyrenophora teres
# Experiment: Pyrenophora teres test (barley)/curative
# Type: in vivo
# Conditions: curative, application rate of active compound 100 g/ha, evaluation 7 days after inoculation, 0% = control, 100% = no infection
# Procedure: Pyrenophora teres Test (Barley)/Curative [table] To produce a suitable preparation of active compound, 1 part by weight of active compound or active compound combination is mixed with the stated amount of solvent and emulsifier, and the concentrate is diluted with water to the desired concentration. To test for curative activity, young plants are sprayed with a conidia suspension of Pyrenophora teres. The plants remain in an incubation cabin at 20° C. and 100% relative atmospheric humidity for 48 hours. The plants are then sprayed with the preparation of active compound at the stated application rate. The plants are placed in a greenhouse at a temperature of about 20° C. and a relative atmospheric humidity of about 80%. Evaluation is carried out 7 days after the inoculation. 0% means an efficacy which corresponds to that of the control, whereas an efficacy of 100% means that no infection is observed.
row,Structure (SMILES),Efficacy in %
1,"CON=C(C(=O)OC)c1ccccc1CO/N=C(\C)c1cccc(C(F)(F)F)c1 [(I), 2-[α-{[(α-methyl-3-trifluoromethylbenzyl)imino]oxy}-o-tolyl]glyoxylic acid methyl ester O-methyl oxime]",56%
2,"OC(Cc1ccccc1Cl)(Cn1nc[nH]c1=S)C1(Cl)CC1 (stereo not drawn) [(II), 2-[2-(1-chlorocyclopropyl)-3-(2-chlorophenyl)-2-hydroxypropyl]-2,4 dihydro[1,2,4]triazole-3-thione]",56%
3,"CON=C(C1=NOCCO1)c1ccccc1Oc1ncnc(Oc2ccccc2Cl)c1F [(III), 3-[1-[2-(4-<2-chlorophenoxy>-5-fluoropyrimid-6-yloxy)phenyl]-1-(methox-imino)methyl]-5,6-dihydro-1,4,2-dioxazine]",67%
